Source: article PMC9526870 (iScience, 2022)

System: SARS-CoV-2
Format: cell-based

CCC(CC)COC(=O)[C@H](C)N[P@](=O)(OC[C@H]1O[C@@](C#N)(c2ccc3c(N)ncnn23)[C@H](O)[C@@H]1O)Oc1ccccc1 [remdesivir]
SARS-CoV-2 fluorescence signal in host cells (in words): depletion of the SARS-CoV-2 fluorescence signal
